Columns and labels:
Type in all cases: cell-based, human
A498 = assay: NCI single-dose GI%, renal; conditions: 10.0 μM in one dose
RXF 393 = assay: NCI single-dose GI%, renal; conditions: RXF 393, renal; 10.0 μM in one dose
TK-10 = assay: NCI single-dose GI%, renal; conditions: TK-10, renal; 10.0 μM in one dose
DU-145 = assay: NCI single-dose GI%, prostate; conditions: DU-145, prostate; 10.0 μM in one dose

SMILES | GI% (A498) | GI% (RXF 393) | GI% (TK-10) | GI% (DU-145)
Cc1ccc(C2=NN(C(=O)c3ccc(S(C)(=O)=O)cc3)C(c3ccc(C)cc3)C2)cc1 (stereo not shown) [Compound 18g, (3,5-Bis(4-tolyl)-4,5-dihydro-1H-pyrazol-1-yl)(4-(methylsulfonyl)phenyl)methanone] | 16% | – | – | –
CS(=O)(=O)c1ccc(C(=O)N2N=C(c3ccccc3)CC2c2ccccc2O)cc1 (stereo not shown) [Compound 18h, (5-(2-Hydroxyphenyl)-3-phenyl-4,5-dihydro-1H-pyrazol-1-yl)(4-(methylsulfonyl)phenyl)methanone] | – | 29% | 25% | 19%

From PMC11240878, “Synthesis, enzyme inhibition assay, and molecular modeling study of novel pyrazolines linked to 4-methylsulfonylphenyl scaffold: antitumor activity and cell cycle analysis” (RSC Advances, 2024)
